From article PMC11784839, “Monoaminergic neurotransmitters are bimodal effectors of tau aggregation” (Science Advances, 2025)

Target: tau (Homo sapiens, UniProt P10636)
Assay: MCE Phenols Library screening, tau biosensor cell seeding assay (AvZ)
Assay type: cell-based
Conditions: for AvZ (average z score of seeding, SDs from the mean level of seeding): 10 μM phenol in cell cultures, AD brain homogenate preincubated 16 hours, two biological replicates, positive = catalyzes seeding, negative = inhibits; for Z repl 1 / Z Repl 2: Z score; for Z repl 1 / raw data 1: replicate 1; for Z Repl 2 / raw data 2: replicate 2
[1] = average Z score of the two replicates, MCE Phenols Library screen
[2] = average puncta of the two replicates
[3] = average Z score of two replicates, Phenols Library screen
[4] = average Z score of the two replicates, tau seeding

Sequence of tau (P10636 623-695 limits assumed): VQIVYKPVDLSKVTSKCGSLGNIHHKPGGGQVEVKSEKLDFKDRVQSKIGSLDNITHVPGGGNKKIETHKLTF

SMILES	AvZ (average z score of seeding, SDs from the mean level of seeding)	Z repl 1	Z Repl 2	av puncta (average of raw data 1 and 2)	raw data 1 (puncta)	raw data 2 (puncta)	av Z [1]	av puncta [2]	raw data 1 (raw puncta)	raw data 2 (raw puncta)	av Z [3]	AvZ (average z score of seeding, SDs from the mean level of seeding) (listed as 6-Hydroxy melatonin)	av Z [4]	av Z (average Z score of the two replicates, tau biosensor seeding, MCE Phenols Library screen)
CCCCC[C@H](O)CC(=O)CCc1ccc(O)c(OC)c1 [6-Gingerol]	0.629													
CCCCCCC[C@H](O)CC(=O)CCc1ccc(O)c(OC)c1 [8-Gingerol]	-0.236	0.065	-0.537					17076	27124.2	7027.77				
CCCCCCCCC[C@H](O)CC(=O)CCc1ccc(O)c(OC)c1 [10-Gingerol]	-0.619	-0.921	-0.318		15293.5	9373.24		12333.4						
CCCCCCCCC/C=C/C(=O)CCc1ccc(O)c(OC)c1 [10-Shogaol]	-0.507													
CC(C)=CCc1c(O)cc2c(c1O)C(=O)C[C@@H](c1ccc(O)cc1)O2 [(2S)-6-Prenylnaringenin]		0.006	0.268	21024	26415.8	15632.3							0.137	
Oc1cc(O)c2c(c1)O[C@H](c1cc(O)c(O)c(O)c1)[C@@H](O)C2 [(+)-Gallocatechin]		-0.679	-1.082	9700.21	18193.2	1207.17	-0.881							
Oc1ccc([C@H]2COc3cc(O)ccc3C2)cc1 [(-)-(S)-Equol]		0.447	-0.597	19047.3	31709.7	6384.95					-0.075			
O=C(O[C@@H]1Cc2c(O)cc(O)cc2O[C@H]1c1ccc(O)c(O)c1)c1cc(O)c(O)c(O)c1 [(-)-Catechin gallate]		-0.615	-1.07	10148.5	18961.3	1335.66	-0.843							
Oc1ccc([C@H]2Oc3cc(O)cc(O)c3C[C@H]2O)cc1 [(-)-Epiafzelechin]		-0.198	0.182	19340.4	23970.4	14710.3					-0.008			
O=C(O[C@@H]1Cc2c(O)cc(O)cc2O[C@@H]1c1ccc(O)c(O)c1)c1cc(O)c(O)c(O)c1 [(-)-Epicatechin gallate]		-1.161	-0.434	10272.2	12408.5	8135.9	-0.797							
O=C(O[C@@H]1Cc2c(O)cc(O)cc2O[C@@H]1c1cc(O)c(O)c(O)c1)c1cc(O)c(O)c(O)c1 [(-)-Epigallocatechin Gallate]		-2.044		1025.27	1812.01	238.519	-1.608							

Other lines, results leading:

AvZ (average z score of seeding, SDs from the mean level of seeding)	Z repl 1	Z Repl 2	av puncta (average of raw data 1 and 2)	raw data 1 (puncta)	raw data 2 (puncta)	av Z [1]	av puncta [2]	raw data 1 (raw puncta)	raw data 2 (raw puncta)	av Z [3]	AvZ (average z score of seeding, SDs from the mean level of seeding) (listed as 6-Hydroxy melatonin)	av Z [4]	av Z (average Z score of the two replicates, tau biosensor seeding, MCE Phenols Library screen)	SMILES
-0.968	-0.814	-1.121	8685.03	16579.9	790.19									COc1cc(/C=C/C(=O)O)cc(O)c1O [5-Hydroxyferulic acid]
	-1.378	-0.72	7440.82	9800.36	5081.28	-1.049								O=c1cc(-c2ccccc2)oc2cccc(O)c12 [5-Hydroxyflavone]
-0.616	-0.683	-0.549		18144.2	6901.21		12522.7							Oc1ccc2[nH]ccc2c1 [5-Hydroxyindole]
0.136	-0.389	0.66	20749.6	21680.5	19818.6									COc1ccc(O)c(C(=O)O)c1 [5-Methoxysalicylic acid]
	-0.368	-0.234				-0.301	16095.7	21928.1	10263.4					COc1cc2c(=O)c(-c3ccc(O)cc3)coc2cc1O[C@@H]1O[C@H](COC(C)=O)[C@@H](O)[C@H](O)[C@H]1O [6''-O-Acetylglycitin]
	-0.422	0.434	19344	21288.5	17399.5					0.006				O=c1ccc2cc(O)ccc2o1 [6-Hydroxycoumarin]
	-0.171	-0.979		24297.8	2305.25	-0.575	13301.5							O=c1cc(-c2ccc(O)c(O)c2)oc2cc(O[C@@H]3O[C@H](CO)[C@@H](O)[C@H](O)[C@H]3O)c(O)c(O)c12 [6-Hydroxyluteolin 7-glucoside]
-0.003	0.345	-0.35	19759.2	30495.8	9022.73						−0.003			COc1cc2c(CCNC(C)=O)c[nH]c2cc1O [6-Hydroxymelatonin]
	0.072	-0.073	19598.9	27207.6	11990.2					-0.001				COc1ccc(-c2cc(=O)c3c(O)cc(OC)cc3o2)cc1 [7,4'-Di-O-methylapigenin]
	0.712	-0.135	23112.9	34900.1	11325.8							0.289		O=c1cc(-c2ccc(O)cc2)oc2cc(O)ccc12 [7,4'-Dihydroxyflavone]
	1.412	0.928	32989.2	43302.3	22676								1.17	O=c1cc(-c2ccccc2)oc2c(O)c(O)ccc12 [7,8-Dihydroxyflavone]
	-0.015	-0.619				-0.317	16165.1	26174.7	6155.6					O=c1ccoc2cc(O)ccc12 [7-Hydroxy-4H-chromen-4-one]
	-0.784	-0.654		16933.5	5782.42	-0.719	11358							CC(C)=CCc1c(O)c(CC=C(C)C)c2oc3c(O)cccc3c(=O)c2c1O [8-Deoxygartanin]
	-0.103	0.252	20281.2	25106.7	15455.8					0.074				COc1c2ccoc2c(O)c2oc(=O)ccc12 [8-Hydroxybergapten]
	0.362	0.799	25999.8	30700.9	21298.7							0.581		C=C(C)[C@H](CC=C(C)C)Cc1c(O)cc(OC)c2c1O[C@H](c1ccc(O)cc1OC)CC2=O [(2S)-2'-Methoxykurarinone]
	0.313	1.018	26875.3	30111.3	23639.2							0.666		COc1cc(C[C@@H](CO)[C@H](CO)Cc2ccc(O)c(OC)c2)ccc1O [(+)-Secoisolariciresinol]
